Test results as given in paper PMC4976923, “Potent Allosteric Dengue Virus NS5 Polymerase Inhibitors: Mechanism of Action and Resistance Profiling” (PLoS Pathogens, 2016).

Experiments:
[1] = test system: Human rhinovirus (7 serotypes); experiment: Human rhinovirus cytopathic inhibition in HeLa cells; format: cell-based; conditions: Rhinovirus A, 120 h, cytopathic inhibition over 5 days
DENV1 FL NS5 = molecular target: T1, DENV1 FL NS5 (Dengue virus type 1, UniProt P17763); experiment: DENV1 FL NS5 de novo initiation FAPA assay; format: biochemical; conditions: one experiment; read-out: DENV FL NS5 de novo initiation FAPA, IC50, DENV1
T1 construct: 100 nM DENV FL NS5 protein was added; made in house
T1 sequence (P17763 2494-3392): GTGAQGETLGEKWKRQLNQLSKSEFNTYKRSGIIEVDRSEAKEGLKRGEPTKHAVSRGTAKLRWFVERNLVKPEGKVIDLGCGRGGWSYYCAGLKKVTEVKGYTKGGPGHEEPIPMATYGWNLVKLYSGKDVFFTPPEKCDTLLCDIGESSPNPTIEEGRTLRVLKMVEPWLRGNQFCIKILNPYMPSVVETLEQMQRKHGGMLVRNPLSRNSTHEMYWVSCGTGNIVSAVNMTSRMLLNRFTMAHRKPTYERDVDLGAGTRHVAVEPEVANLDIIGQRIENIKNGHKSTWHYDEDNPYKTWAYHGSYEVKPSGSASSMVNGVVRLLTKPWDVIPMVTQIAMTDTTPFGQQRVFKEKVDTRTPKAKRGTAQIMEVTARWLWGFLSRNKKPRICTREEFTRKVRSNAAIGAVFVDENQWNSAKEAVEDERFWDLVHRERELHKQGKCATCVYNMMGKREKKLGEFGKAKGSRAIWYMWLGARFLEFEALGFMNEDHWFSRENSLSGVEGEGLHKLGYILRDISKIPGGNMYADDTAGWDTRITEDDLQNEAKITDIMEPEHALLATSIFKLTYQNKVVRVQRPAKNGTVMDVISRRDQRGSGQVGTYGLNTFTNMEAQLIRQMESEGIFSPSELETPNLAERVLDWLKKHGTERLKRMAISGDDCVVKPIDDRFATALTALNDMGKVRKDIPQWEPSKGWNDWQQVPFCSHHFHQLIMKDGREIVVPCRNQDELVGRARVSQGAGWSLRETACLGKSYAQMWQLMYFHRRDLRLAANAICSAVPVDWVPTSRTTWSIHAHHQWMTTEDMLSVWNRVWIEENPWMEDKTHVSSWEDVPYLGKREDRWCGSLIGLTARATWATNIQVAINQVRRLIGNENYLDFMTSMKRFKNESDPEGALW
Procedure: DENV1-4 FL NS5 dnI assays were performed as described previously. Briefly, compounds from 0–20 or -100 μM concentrations are two-fold serially diluted into 384-well black opaque plates (Corning Costar), after which 100 nM DENV FL NS5 protein was added and the plates incubated at RT for 20 min. RNA and ATTO-CTP, ATP, GTP and UTP were then added and the plates incubated for another 120 min. Reactions were stopped with buffer containing 25 nM CIP, re- incubated at RT for 60 min and read on a Tecan Safire II microplate reader. For order-of-addition experiments, DENV4 FL NS5 was incubated for one hour at RT with RNA, ATP, and GTP or RNA, ATP, GTP and ATTO-CTP, followed by exposure to serially diluted compounds for 20 min at RT. The missing components (ATTO-CTP and UTP or UTP alone) were added and the reactions continued for 120 min after which STOP buffer was added as before. All datapoints were performed in duplicate wells. Each compound was tested at least twice.
2 Co mpound testing with DENV dn I FAPA assays. Final dn I assa y reaction mixtures
3 contained 100 nM DENV 5 ´UTR-L-3´UTR IVT RNA, 20 µ M ATP, 20 µM GTP, 20 µM
4 UTP, 5 µM ATTO -CTP, and 100 nM of DENV FL NS5 protein in 15 µl in assa y buffer
5 comprising 50 mM Tris/ HCl, pH 7.5, 10 mM KCl, 1 mM MgCl2, 0.3 mM MnCl2 (DENV2
6 and 4) or 1 mM MnCl 2 (DENV1 and 3), 0.001% Triton- X-100 and 10 µ M cystein e [ 1] . To
7 perform dose-respons e inhibition measurements, compounds from 0- 20 or - 100 µM
8 concentr ations are two -fold seriall y diluted into 384-well black opaqu e plat es (Corning
9 Costar), after which 100 nM DENV FL NS5 protein was added into resp ect ive wells. The
10 plates wer e sealed, b riefl y shak en and centrif uged at 1500 rpm for 30 sec and incubated at RT
11 for 15 min. Thereafter,RNA and ATTO -CTP, ATP, GTP and UTP were added to the wells to
12 start the reactions. The pl ates wer e re-seal ed, shaken and centrifuged as before, followed b y
13 incubation RT for 120 min. Reactions were stopped by addition of 10 µl of 2.5X STOP
14 buffer (200 mM NaCl, 25 mM MgCl2, 1.5M DEA, pH 10; Promega) with 25 nM calf
15 intestinal phosphatase (CIP), re- incubation at RT for 60 min and read on a Tecan Safire II
16 microplate reader. For o r der-of-addition experiments, DENV4 FL NS5 was incubated for one
17 hour at RT with RNA, ATP, and GTP or RNA, ATP, GTP and ATTO-CTP, followed by
18 exposure to seriall y dilut ed compounds for 20 mi n at RT. The missing components (ATTO-
19 CTP and UTP or UTP alone) were added and the reactions continued for 120 min after which
20 STOP buffer was added as before. All datapoints were performed in duplicate wells. Each
21 compound was tested at l east twice.
23 Compound testing in DENV1-4 infected cells by high content imaging. Approximatel y 7
24 × 10^3 A549 cells per well were s eeded into 384-well plates in Ham’s F-12K medium

DENV2 FL NS5 WT = molecular target: T2, DENV2 FL NS5 WT (Dengue virus type 2, UniProt P14340); format: binding; conditions: 50 µM compound; for Protein melting temperature, Tm, DENV2 FL NS5 WT: DMSO 35.5
T2 construct: compared against activities of WT DENV2 or DENV4 FL NS5 proteins; made in house

[2] = test system: WNV (New York strain 3356) replicon; experiment: WNV replicon cell-based assay; conditions: 0–50 μM, 2 days
Procedure: 4 Compound testing in cells transiently expressing DENV and WNV replicon. R enilla
5 luciferas e sub-genomic replicon of DENV2 (strai n New Guinea C) or WN V (New York
6 strain 3356) cloned into the pACYC plasmid, was in vitro transcribed using a T7 mMessage
7 mMachine kit (Ambion, Austin, TX) after linearization with ClaI, as descri bed previousl y
8 [5]. A549 cells were electroporated with 10 μg of replicon RNA using a GenePulser Xcell
9 system (Bio-Rad, H ercul es, CA) with 3 pulses, at 450 V, 25 µF, at 5- 10 sec intervals.
10 Transfected cells wer e seeded into a 96-w ell plate at 1.5 × 10^4 cells per well, followed b y
11 treatment with the compound or the dimethyl sulfoxide (DMSO) control and incubation at
12 37°C in 5 % CO2. At various time points post-transfection, cells were w ash ed once with
13 phosphate-buffered saline (PBS) and l ysed in 20 μl 1× l ysis buffer (Promega, USA) and
14 assa yed fo r luciferase si gnals with a Clarit y luminescence microplate reader (BioT ek, USA)
15 using the renilla luciferase assa y s ystem (Promega, USA). CellTiter -Glo reagent was added to
16 the l ysates to determine t he c ytotoxicit y effects of compounds.Duplicate w ells were seeded
WNV ( New York strain 3356) replicon cDNA was electropo rated in BHK -21 cells, […]
4 from replicon cells were determined b y measuring cellular renilla luciferase levels. […]
5 points were measured in duplicates.

DENV2 FL NS5 E802D = molecular target: T3, DENV2 FL NS5 E802D (Dengue virus type 2, UniProt P14340, E3293D); format: binding; conditions: 50 µM compound; for Protein melting temperature, Tm, DENV2 FL NS5 E802D: DMSO 36
T3 construct: Recombinant DENV2 (A, C) and DENV4 (B, D) FL NS5 proteins bearing single or double amino acid changes; made in house

[3] = test system: Compound 29-resistant DENV2-NGC EGFP-replicon cells; experiment: Compound-resistant DENV2-NGC EGFP-replicon cells; format: cell-based; conditions: Dengue virus, DENV2, 48 h, read-out: EC50, Compound 29-resistant DENV2-NGC EGFP-replicon cells
[4] = test system: DENV2-NGC EGFP Replicon in BHK21; experiment: Stable BHK21 DENV2-NGC EGFP replicon assay; format: cell-based; conditions: Dengue virus, DENV2, BHK-21; 48 hr
DENV4 FL NS5 = experiment: Thermo-denaturation assay, recombinant FL NS5; format: binding; conditions: for Tm change compared to DMSO control, DENV4 FL NS5 WT: 50 µM compound (Fig 7 in S1 Text); for Protein melting temperature, Tm, DENV4 FL NS5 WT: 50 µM compound, DMSO 37.5 (Fig 7 in S1 Text); for Protein melting temperature Tm with compound, FL NS5: +50 μM compound, DMSO control 42.5
Procedure: Site-directed alanine mutations of DENV4 FL NS5 cDNA were performed using pET28-D4-MY01-22713 NS5FL [23] as a template, according to the manufacturer’s protocol (Stratagene, USA). Protein expressions of DENV1-4 FL NS5 and their stability analyses by thermo-fluorescence were performed as described previously. DENV de novo initiation and elongation FAPA assays were earlier described. […]
6 Fi g .5. Ef fects of N -pocket compounds on DENV pol ymerase thermo-stability. Melting
7 temperatur e (Tm) w as ass essed b y thermo-d enatur ation in presence of the S YPRO Oran ge
8 dye as described in Materials and Methods. (A-F) Representative meltin g curves of DEN V4
10 inhibitors or 5 % DMSO control. […]
16 controls treated with DMSO.

DENV2-NGC virus E802D = format: cell-based; conditions: A549, MOI = 0.2; 48 hr; plaque assay
[5] = test system: clinical isolates of DENV1-4; conditions: across four serotypes; cited from earlier work

COc1cc(OC)c(-c2ccc(C#CCO)s2)cc1C(=O)NS(=O)(=O)c1cccc2cccnc12 [Compound 29]
EC50 [1]: > 50 µM | IC50 (DENV1 FL NS5): 0.013 µM | Tm change compared to DMSO control, DENV2 FL NS5 WT (DENV2 FL NS5 WT): 4.5 °C | Protein melting temperature, Tm, DENV2 FL NS5 WT (DENV2 FL NS5 WT): 40 °C | activity in WNV replicon cell-based assay [2]: inactive | Tm change compared to DMSO control, DENV2 FL NS5 E802D (DENV2 FL NS5 E802D): 2.0 °C | Protein melting temperature, Tm, DENV2 FL NS5 E802D (DENV2 FL NS5 E802D): 38 °C | EC50 [3]: 34 µM | EC50 [4]: 5.8 µM | Tm change compared to DMSO control, DENV4 FL NS5 WT (DENV4 FL NS5): 3 °C | Protein melting temperature, Tm, DENV4 FL NS5 WT (DENV4 FL NS5): 40.5 °C | Protein melting temperature Tm with compound, FL NS5 (DENV4 FL NS5): 51.5 °C | EC50 (DENV2-NGC virus E802D): 5.8 µM

COc1cccc(S(=O)(=O)NC(=O)c2cc(-c3ccc(C#CCO)s3)c(OC)cc2OC)c1 [Compound 27]
EC50 [1]: > 50 µM | Tm change compared to DMSO control, DENV2 FL NS5 WT (DENV2 FL NS5 WT): 1.5 °C | Protein melting temperature, Tm, DENV2 FL NS5 WT (DENV2 FL NS5 WT): 37 °C | activity in WNV replicon cell-based assay [2]: inactive | EC50 [5]: ~2 µM | Tm change compared to DMSO control, DENV2 FL NS5 E802D (DENV2 FL NS5 E802D): 0 °C | Protein melting temperature, Tm, DENV2 FL NS5 E802D (DENV2 FL NS5 E802D): 36 °C | EC50 [3]: 41.7 µM | EC50 [4]: 3.5 µM | Tm change compared to DMSO control, DENV4 FL NS5 WT (DENV4 FL NS5): 1 °C | Protein melting temperature, Tm, DENV4 FL NS5 WT (DENV4 FL NS5): 38.5 °C | Protein melting temperature Tm with compound, FL NS5 (DENV4 FL NS5): 46.5 °C | EC50 (DENV2-NGC virus E802D): 1.42 µM

COc1cccc(S(=O)(=O)NC(=O)c2cc(-c3ccc(C#CCO)s3)c(OC)cc2C)c1 [Compound 26i]
IC50 (DENV1 FL NS5): 0.024 µM
